Source: the RepoRT retention time repository (doi:10.1021/ac101825k)

Assay: RP, Waters Symmetry C18, 100 × 2.1 mm; A: water + 0.1% formic acid, pH 3; B: acetonitrile + 0.1% formic acid, pH 3; gradient (min/%B) 0/5 24/95 29/95 29.1/5
Details: stereoisomer not certain

| LC retention time [min] | SMILES |
| --- | --- |
| 7.82 | Oc1cc(O)c2c(c1)OC(c1ccc(O)c(O)c1)C(O)C2 (single isomer, unassigned; (-)) [(-)-Epicatechin] |
| 12.3 | COc1cc(C=CC(=O)O)cc(OC)c1OC [3,4,5-Trimethoxycinnamic_acid] |
| 8.77 | Cc1cc(=O)oc2cc(OC3OC(C(=O)O)C(O)C(O)C3O)ccc12 (stereo unspecified) [4-Methylumbelliferylglucuronide] |
| 1.52 | Nc1ncnc2c1ncn2C1OC(CO)C(O)C1O (stereo unspecified) [Adenosine] |
| 14.2 | O=c1cc(-c2ccc(O)c(-c3c(O)cc(O)c4c(=O)cc(-c5ccc(O)cc5)oc34)c2)oc2cc(O)cc(O)c12 [Amentoflavone] |
| 7.2 | CN1CCc2cccc3c2C1Cc1ccc(O)c(O)c1-3 (stereo unspecified) [Apomorphine] |
| 9.9 | COc1ccc2cc3[n+](cc2c1OC)CCc1cc2c(cc1-3)OCO2 [Berberine] |
| 14.5 | COc1c2ccoc2cc2oc(=O)ccc12 [Bergapten] |
| 16.1 | COc1ccc(-c2coc3cc(O)cc(O)c3c2=O)cc1 [Biochanin_A] |
| 11.2 | CCC1OC(=O)C(C)C(OC2CC(C)(OC)C(O)C(C)O2)C(C)C(OC2OC(C)CC(N(C)C)C2O)C(C)(O)CC(C)C(=O)C(C)C(O)C1(C)O (stereo unspecified) [Erythromycin] |
| 13.1 | O=c1c(-c2ccc(O)cc2)coc2cc(O)cc(O)c12 [Genistein] |
| 12.1 | CC(C)C(NC(=O)Cc1c[nH]c2ccccc12)C(=O)O (stereo unspecified) [IAA-Val] |
| 10.5 | O=C(O)c1c[nH]c2ccccc12 [Indole-3-carboxylic_acid] |
| 13.3 | O=c1c(O)c(-c2ccc(O)cc2)oc2cc(O)cc(O)c12 [Kaempferol] |
| 6.57 | c1coc(CNc2ncnc3nc[nH]c23)c1 [Kinetin] |
| 10.5 | CC1OC(OC2C(Oc3cc(O)c4c(c3)OC(c3ccc(O)cc3)CC4=O)OC(CO)C(O)C2O)C(O)C(O)C1O (stereo unspecified) [Naringin] |

| LC retention time [min] | SMILES |
| --- | --- |
| 1.2 | NC(=O)c1ccc[n+](C2OC(COP(=O)(O)OP(=O)(O)OCC3OC(n4cnc5c(N)ncnc54)C(O)C3O)C(O)C2O)c1 (stereo unspecified) [Nicotinamide_dinucleotide] |
| 2.27 | NC(Cc1ccccc1)C(=O)O (stereo unspecified) [Phenylalanine] |
| 11.1 | O=C(CCc1ccc(O)cc1)c1c(O)cc(O)cc1OC1OC(CO)C(O)C(O)C1O (stereo unspecified) [Phlorizin] |
| 12.2 | O=c1c(O)c(-c2ccc(O)c(O)c2)oc2cc(O)cc(O)c12 [Quercetin] |
| 12.6 | COC(=O)C1C2CC3c4[nH]c5cc(OC)ccc5c4CCN3CC2CC(OC(=O)c2cc(OC)c(OC)c(OC)c2)C1OC (stereo unspecified) [Reserpine] |
| 11.5 | Oc1ccc(C=Cc2cc(O)cc(O)c2)cc1 [Resveratrol] |
| 15.1 | COC1C=COC2(C)Oc3c(C)c(O)c4c(O)c(c(C=NN5CCN(C)CC5)c(O)c4c3C2=O)NC(=O)C(C)=CC=CC(C)C(O)C(C)C(O)C(C)C(OC(C)=O)C1C (stereo unspecified) [Rifampicin] |
| 9.72 | CC1OC(OCC2OC(Oc3c(-c4ccc(O)c(O)c4)oc4cc(O)cc(O)c4c3=O)C(O)C(O)C2O)C(O)C(O)C1O (stereo unspecified) [Rutin] |
| 10 | COc1ccc2c(c1OC)C(=O)OC2C1c2c(cc3c(c2OC)OCO3)CCN1C (stereo unspecified) [S,R-Noscapine] |
| 10.9 | Cc1cc2nc3cc(C)c(N)cc3[n+](-c3ccccc3)c2cc1N [Safranin] |
| 6.46 | COc1cc(C=CC(=O)OCC[N+](C)(C)C)cc(OC)c1O [Sinapine] |
| 4.07 | NC(Cc1c[nH]c2ccccc12)C(=O)O (stereo unspecified) [Tryptophan] |
| 9.58 | CC1OC(OC2C(c3c(O)cc(O)c4c(=O)cc(-c5ccc(O)cc5)oc34)OC(CO)C(O)C2O)C(O)C(O)C1O (stereo unspecified) [Vitexin-2''-O-rhamnoside] |
| 18.5 | COc1cc(O)c(CC=C(C)C)c(O)c1C(=O)C=Cc1ccc(O)cc1 [Xanthohumol] |
| 10.1 | COc1ccccc1C(=O)O [o-Anisic acid] |

| SMILES | LC retention time [min] |
| --- | --- |
| CN1CCc2cc3c(cc2C1C1OC(=O)c2c1ccc1c2OCO1)OCO3 (stereo unspecified) [Bicuculline] | 8.51 |
| CN1Cc2c(ccc3c2OCO3)C2C(O)Cc3cc4c(cc3C21)OCO4 (stereo unspecified) [Chelidonine] | 9.5 |
| C=CC1CN2CCC1CC2C(O)c1ccnc2ccccc12 (stereo unspecified) [Cinchonine] | 3.47 |
| CCC1CN2CCc3cc(OC)c(OC)cc3C2CC1CC1NCCc2cc(OC)c(OC)cc21 (stereo unspecified) [Emetine] | 7.62 |
| Cc1nccc2c1[nH]c1ccccc12 [Harmane] | 7.81 |
| COc1ccc(CC2c3cc(OC)c(OC)cc3CCN2C)cc1OC (stereo unspecified) [Laudanosine] | 8.39 |
| C=C(C)C1Cc2c(ccc3c2OC2COc4cc(OC)c(OC)cc4C2C3=O)O1 (stereo unspecified) [Rotenone] | 18 |
| CC1NCCc2cc(O)c(O)cc21 (stereo unspecified) [Salsolinol] | 1.08 |
| Oc1ccc(CC2NCCc3cc(O)c(O)cc32)cc1O (stereo unspecified) [Tetrahydropapaveroline] | 1.14 |
| NCCc1ccc(O)cc1 [Tyramine] | 8.45 |
